Laboratory results reported in patent publication US10351519B2, “Sulfamate derivative compounds, processes for preparing them and their uses” (BIO-PHARM SOLUTIONS CO., LTD., priority 2016, dated 2019).

Assays:
ICR mice = experiment: Anti-epilepsy activity, MES test, mouse; format: in vivo; details: for ED50 / responders at 50 mg/kg / responders at 30 mg/kg: po; for responders at 50 mg/kg / responders at 30 mg/kg: read-out: MES test (po) efficacy %
Experimental: In the MES test (Ref., G. Villetti et al. Neuropharmacology 40 (2001) 866-878), an electrical stimulus (mice: 50 mA, 60 Hz, 0.2 sec, and rats: 150 mA, 60 Hz, 0.2 sec in the test animal) supplied by an 11A Shocker (IITC Life Science Company) was delivered through corneal electrodes. All mice or rats assigned to any electroshock at peak time were treated with each test compound sample which was dissolved in 30% PEG 400 or 20% tween 80 prepared by saline solvent applied orally before the test. […] Three doses of the test sample were administered orally to 9-18 animals (3-6 mice per dose) for evaluating the respective doses at which 50% of the animals were protected from seizure (ED50). The ED50 value (median effective dose) was calculated by Litchfield and Wicoxon log-probit method which is a dose-response relationship. Experimental animals, male ICR mice and male SD rats, were purchased from OrientBio, Samtako, or Nara Biotech, Korea, and housed in cages (4-5 mice or 3 rats per cage) for 4-5 days. The range of mice body weight was between 19 and 25 grams and range of rats body weight was between 100 and 130 grams.

Sprague-Dawley rats = experiment: Antiallodynic activity on Complete Freund's Adjuvant (CFA)-induced inflammatory pain model; format: in vivo; details: intraperitoneally; for response vs control in vivo at 50 mg/kg: Rattus norvegicus, ip, read-out: CFA-induced pain model efficacy %
Experimental: Male, Sprague-Dawley rats (210-250 g, Nara Bio, Korea) were habituated for 1 week before CFA injection and allowed free access to food and water throughout the experimentation. Room temperature and humidity were maintained at 24±2 and 50±10%, respectively.
CFA-induced inflammatory pain was induced by the procedure of Nagakura et al. (2003) and Gregory P. et al. (2010) with minor modifications. CFA (sigma, USA) was injected in the right plantar with a 100 ul volume under gaseous anesthesia with isoflurane. Sham controls were injected with 100 ul of saline and preparation of the vehicles without compound in the vehicle control group. Tactile sensitivity (Mechanical allodynia) was evaluated using von Frey monofilaments before and after treatment, and the animals were included in the study only if the withdrawal threshold value was less than 4 g. One week after surgery, CFA-infused treatment animals (n=4-6), sham-operated animals (n=12), and vehicle control animals (n=17) were tested for tactile sensitivity with von Frey monofilaments 3 trials for each animal. All Animals were placed in a stainless steel mesh chamber and habituated for 30 min in the test box. The tactile sensitivity for ipsilateral hind paw was measured using the up-and-down method (Dixon, 1980) with seven von Frey monofilaments (0.4, 1, 2, 4, 6, 8, and 15 g) to 3 trials. Tactile sensitivity test was followed by Dixon's method (Dixon, 1980). The 50% paw withdrawal threshold for each paw was calculated using the following formula: [Xth] log=[vFr] log+ky where [vFr] is the force of the last von Frey used, k=0.2249 which is the average interval (in log units) between the von Frey monofilaments, and y is a value that depends upon the pattern of withdrawal responses (Dixon, 1980).
Antiallodynic effect of compound was evaluated at the dose of 10-60 mg/kg (n=4-6), intraperitoneally administrated in a volume of 5 ul/g bw in a vehicle of 30% (v/v) PEG or 20% (v/v) Tween 80. The test was performed peak time of efficacy (0.5 or 1 hr) after compound administration.
The relative values compared to the sham (% control) were calculated and shown in Table 4, which show an antiallodynic effect of Compound 1 on CFA-induced pain model in rats.

Compound | MES test (po) Peak time (ICR mice) [h] | ED50 (ICR mice) [mg/kg] | response vs control in vivo at 50 mg/kg (Sprague-Dawley rats) [%] | CFA-induced pain model Peak Time (Sprague-Dawley rats) [h] | responders at 50 mg/kg (ICR mice) [%] | responders at 30 mg/kg (ICR mice) [%]
COCO[C@@H](c1cccc(Cl)c1Cl)[C@H](C)OS(N)(=O)=O [Example 53, (1S, 2S)-1-(2,3-dichlorophenyl)-1-(methoxymethoxy)propan-2-yl sulfamate] | 2 | 67.8 |  |  |  | 
COCO[C@H](c1c(Cl)cccc1Cl)[C@@H](C)OS(N)(=O)=O [Example 58, (1R, 2R)-1-(2,6-dichlorophenyl)-1-(methoxymethoxy)propan-2-yl sulfamate] | 1 | 54.4 | 17.7 | 0.5 |  | 
COCO[C@@H](c1ccccc1F)[C@H](C)OS(N)(=O)=O [Example 72, (1S, 2S)-1-(2-fluorophenyl)-1-(methoxymethoxy)propan-2-yl sulfamate] |  |  | 25.9 | 0.5 |  | 
CC(C)[C@@H](OS(N)(=O)=O)[C@H](O)c1ccccc1Cl [Example 14, (1R, 2R)-1-(2-chlorophenyl)-1-hydroxy-3-methylbutan-2-yl sulfamate] | 1 |  | 18.4 | 1 | 25 | 
C[C@H](OS(N)(=O)=O)[C@@H](O)c1sc(Cl)nc1Cl [Example 102, (1R,2S)-1-(2,4-dichlorothiazol-5-yl)-1-hydroxypropan-2-yl sulfamate] | 2 | 42.7 |  |  |  | 
COCO[C@@H](c1ccccc1I)[C@H](C)OS(N)(=O)=O [Example 74, (1S, 2S)-1-(2-iodophenyl)-1-(methoxymethoxy)propan-2-yl sulfamate] | 0.5 |  | 19.9 | 0.5 |  | 33.3
CC(C)[C@H](OS(N)(=O)=O)[C@@H](O)c1ccccc1Cl [Example 13, (1S, 2S)-1-(2-chlorophenyl)-1-hydroxy-3-methylbutan-2-yl sulfamate] | 1 |  |  |  | 25 | 
COCO[C@@H](c1c(F)cccc1Cl)[C@H](C)OS(N)(=O)=O [Example 61, (1S, 2S)-1-(2-chloro-6-fluorophenyl)-1-(methoxymethoxy)propan-2-yl sulfamate] | 2 |  |  |  |  | 33.3
COCO[C@H](c1ccccc1Cl)[C@@H](C)OS(=O)(=O)NC1CC1 [Example 79, (1R, 2R)-1-(2-chlorophenyl)-1-(methoxymethoxy)propan-2-yl cyclopropylsulfamate] | 1 |  |  |  | 25 | 
CC(C)NS(=O)(=O)O[C@H](C)[C@H](O)c1ccccc1Cl [Example 38, (1R, 2R)-1-(2-chlorophenyl)-1-hydroxypropan-2-yl isopropylsulfamate] | 2 |  |  |  | 50 | 
COCO[C@@H](c1sc(Cl)nc1Cl)[C@H](C)OS(N)(=O)=O [Example 103, (1R,2S)-1-(2,4-dichlorothiazol-5-yl)-1-(methoxymethoxy)propan-2-yl sulfamate] | 2 | 52.7 |  |  |  | 
CO[C@@H](c1ccccc1I)[C@H](C)OS(N)(=O)=O [Example 92, (1S,2S)-1-(2-iodophenyl)-1-methoxypropan-2-yl sulfamate] |  |  | 31.8 | 0.5 |  | 
C[C@H](OS(N)(=O)=O)[C@@H](O)c1cccc(Cl)c1Cl [Example 9, (1S, 2S)-1-(2,3-dichlorophenyl)-1-hydroxypropan-2-yl sulfamate] | 4 | 61.8 |  |  |  | 
COCO[C@@H](c1ccccc1Cl)[C@H](C)OS(=O)(=O)NC1CC1 [Example 78, (1S, 2S)-1-(2-chlorophenyl)-1-(methoxymethoxy)propan-2-yl cyclopropylsulfamate] | 4 |  |  |  | 25 | 
